Patent US11820766B2, “Monoacylglycerol lipase modulators” (Janssen Pharmaceutica NV, priority 2018, dated 2023)
Counter-ions that a name gives are not always drawn.

biological target: T1, human MGL from HeLa cells (Homo sapiens, UniProt Q99685); experiment: In vitro MGL activity assay: [glycerol-1,3-3H]-oleyl glycerol cleavage by MGL from HeLa cells; type: biochemical; details: 300 nM [Glycerol-1,3-3H]-oleyl glycerol, one hour
T1 construct: combining endogenously expressed MGL from HeLa cells with test compounds; endogenous in cells; host or cells: HeLa cells / cell homogenates
T1 sequence (Q99685 1-303): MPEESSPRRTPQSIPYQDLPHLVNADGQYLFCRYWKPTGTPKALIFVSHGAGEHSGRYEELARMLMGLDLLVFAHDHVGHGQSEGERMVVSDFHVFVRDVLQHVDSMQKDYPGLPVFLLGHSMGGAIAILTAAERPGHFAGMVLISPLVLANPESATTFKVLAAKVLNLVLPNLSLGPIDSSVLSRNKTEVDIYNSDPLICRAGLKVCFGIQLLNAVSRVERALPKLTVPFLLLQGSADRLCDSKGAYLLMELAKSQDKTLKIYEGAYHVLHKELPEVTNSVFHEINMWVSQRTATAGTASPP
Source text: MGL is the predominant hydrolase in HeLa cells/cell homogenates.

Row | SMILES | IC50 [nM]
1 | C[C@H]1c2nn(C)c(-c3cc(F)c(F)c(F)c3)c2CCN1C(=O)c1nccc2cn(C)nc12 [Example 429, [(7S)-2,7-Dimethyl-3-(3,4,5-trifluorophenyl)-5,7-dihydro-4H-pyrazolo[3,4-c]pyridin-6-yl]-(2-methylpyrazolo[3,4-c]pyridin-7-yl)methanone] | 412
2 | C[C@H]1c2nn(C)c(-c3cc(F)c(F)c(F)c3)c2CCN1C(=O)c1nccc2cn[nH]c12 [Example 432, [(7S)-2,7-Dimethyl-3-(3,4,5-trifluorophenyl)-5,7-dihydro-4H-pyrazolo[3,4-c]pyridin-6-yl]-(1H-pyrazolo[3,4-c]pyridin-7-yl)methanone] | 274
3 | C[C@H]1c2nn(C)c(-c3cc(F)c(F)c(F)c3)c2CCN1C(=O)c1cncc2cn[nH]c12 [Example 434, [(7S)-2,7-Dimethyl-3-(3,4,5-trifluorophenyl)-5,7-dihydro-4H-pyrazolo[3,4-c]pyridin-6-yl]-(1H-pyrazolo[4,3-c]pyridin-7-yl)methanone] | 277
4 | C[C@H]1c2nn(C)c(-c3cc(F)c(F)c(F)c3)c2CCN1C(=O)c1n[nH]c2cccnc12 [Example 436, [(7S)-2,7-Dimethyl-3-(3,4,5-trifluorophenyl)-5,7-dihydro-4H-pyrazolo[3,4-c]pyridin-6-yl]-(1H-pyrazolo[4,3-b]pyridin-3-yl)methanone] | 175
5 | C[C@H]1c2nn(C)c(-c3cc(F)c(F)c(F)c3)c2CCN1C(=O)c1nnc2ccccn12 [Example 437, [(7S)-2,7-Dimethyl-3-(3,4,5-trifluorophenyl)-5,7-dihydro-4H-pyrazolo[3,4-c]pyridin-6-yl]-([1,2,4]triazolo[4,3-a]pyridin-3-yl)methanone] | 187
6 | C[C@H]1c2nn(C)c(-c3cc(F)c(F)c(F)c3)c2CCN1C(=O)c1cccc2nncn12 [Example 438, [(7S)-2,7-Dimethyl-3-(3,4,5-trifluorophenyl)-5,7-dihydro-4H-pyrazolo[3,4-c]pyridin-6-yl]-([1,2,4]triazolo[4,3-a]pyridin-5-yl)methanone] | 513
7 | C[C@H]1c2nn(C)c(-c3cc(F)c(F)c(F)c3)c2CCN1C(=O)c1ccc2nncn2c1 [Example 439, [(7S)-2,7-Dimethyl-3-(3,4,5-trifluorophenyl)-5,7-dihydro-4H-pyrazolo[3,4-c]pyridin-6-yl]-([1,2,4]triazolo[4,3-a]pyridin-6-yl)methanone] | 9270
8 | C[C@H]1c2nn(C)c(-c3cc(F)c(F)c(F)c3)c2CCN1C(=O)c1ccc2nnc(C(F)F)n2c1 [Example 440, [3-(Difluoromethyl)-[1,2,4]triazolo[4,3-a]pyridin-6-yl]-[(7S)-2,7-dimethyl-3-(3,4,5-trifluorophenyl)-5,7-dihydro-4H-pyrazolo[3,4-c]pyridin-6-yl]methanone] | 865
9 | Cc1ccnn2nc(C3CC3)c(C(=O)N3CCc4c(nn(C)c4-c4cc(F)c(F)c(F)c4)[C@@H]3C)c12 [Example 444, (2-Cyclopropyl-4-methyl-pyrazolo[1,5-b]pyridazin-3-yl)-[(7S)-2,7-dimethyl-3-(3,4,5-trifluorophenyl)-5,7-dihydro-4H-pyrazolo[3,4-c]pyridin-6-yl]methanone] | 2380
10 | Cc1cnn2nc(C3CC3)c(C(=O)N3CCc4c(nn(C)c4-c4cc(F)c(F)c(F)c4)[C@@H]3C)c2c1 [Example 445, (2-Cyclopropyl-5-methyl-pyrazolo[1,5-b]pyridazin-3-yl)-[(7S)-2,7-dimethyl-3-(3,4,5-trifluorophenyl)-5,7-dihydro-4H-pyrazolo[3,4-c]pyridin-6-yl]methanone] | 525
11 | Cc1nccn2nc(C3CC3)c(C(=O)N3CCc4c(nn(C)c4-c4cc(F)c(F)c(F)c4)[C@@H]3C)c12 [Example 447, (2-Cyclopropyl-4-methyl-pyrazolo[1,5-a]pyrazin-3-yl)-[(7S)-2,7-dimethyl-3-(3,4,5-trifluorophenyl)-5,7-dihydro-4H-pyrazolo[3,4-c]pyridin-6-yl]methanone] | 392
12 | Cc1cnc2c(C(=O)N3CCc4c(nn(C)c4-c4cc(F)c(F)c(F)c4)[C@@H]3C)cnn2c1 [Example 451, [(7S)-2,7-Dimethyl-3-(3,4,5-trifluorophenyl)-5,7-dihydro-4H-pyrazolo[3,4-c]pyridin-6-yl]-(6-methylpyrazolo[1,5-a]pyrimidin-3-yl)methanone] | 199

Continued by falling IC50, values first:

Row | IC50 [nM] | SMILES
13 | 172 | Cc1ccnc2c(C(=O)N3CCc4c(nn(C)c4-c4cc(F)c(F)c(F)c4)[C@@H]3C)cnn12 [Example 450, [(7S)-2,7-Dimethyl-3-(3,4,5-trifluorophenyl)-5,7-dihydro-4H-pyrazolo[3,4-c]pyridin-6-yl]-(7-methylpyrazolo[1,5-a]pyrimidin-3-yl) methanone]
14 | 113 | C[C@H]1c2nn(C)c(-c3cc(F)c(F)c(F)c3)c2CCN1C(=O)c1cnn2cccnc12 [Example 448, [(7S)-2,7-Dimethyl-3-(3,4,5-trifluorophenyl)-5,7-dihydro-4H-pyrazolo[3,4-c]pyridin-6-yl]-pyrazolo[1,5-a]pyrimidin-3-yl-methanone]
15 | 104 | C[C@H]1c2nn(C)c(-c3cc(F)c(F)c(F)c3)c2CCN1C(=O)c1nccc2cnn(C)c12 [Example 433, [(7S)-2,7-Dimethyl-3-(3,4,5-trifluorophenyl)-5,7-dihydro-4H-pyrazolo[3,4-c]pyridin-6-yl]-(1-methylpyrazolo[3,4-c]pyridin-7-yl)methanone]
16 | 95.3 | C[C@H]1c2nn(C)c(-c3cc(F)c(F)c(F)c3)c2CCN1C(=O)c1nn(C)c2cnccc12 [Example 431, [(7S)-2,7-Dimethyl-3-(3,4,5-trifluorophenyl)-5,7-dihydro-4H-pyrazolo[3,4-c]pyridin-6-yl]-(1-methylpyrazolo[3,4-c]pyridin-3-yl)methanone.TFA salt]
17 | 68.1 | Cc1nn(C)c2nccc(C(=O)N3CCc4c(nn(C)c4-c4cc(F)c(F)c(F)c4)[C@@H]3C)c12 [Example 425, (1,3-Dimethylpyrazolo[3,4-b]pyridin-4-yl)-[(7S)-2,7-dimethyl-3-(3,4,5-trifluorophenyl)-5,7-dihydro-4H-pyrazolo[3,4-c]pyridin-6-yl]methanone]
18 | 56.1 | C[C@H]1c2nn(C)c(-c3cc(F)c(F)c(F)c3)c2CCN1C(=O)c1n[nH]c2cnccc12 [Example 430, [(7S)-2,7-Dimethyl-3-(3,4,5-trifluorophenyl)-5,7-dihydro-4H-pyrazolo[3,4-c]pyridin-6-yl]-(1H-pyrazolo[3,4-c]pyridin-3-yl)methanone]
19 | 49 | Cc1nn2cccnc2c1C(=O)N1CCc2c(nn(C)c2-c2cc(F)c(F)c(F)c2)[C@@H]1C [Example 449, [(7S)-2,7-Dimethyl-3-(3,4,5-trifluorophenyl)-5,7-dihydro-4H-pyrazolo[3,4-c]pyridin-6-yl]-(2-methylpyrazolo[1,5-a]pyrimidin-3-yl)methanone]
20 | 43.9 | Cc1nn2ncccc2c1C(=O)N1CCc2c(nn(C)c2-c2cc(F)c(F)c(F)c2)[C@@H]1C [Example 442, [(7S)-2,7-Dimethyl-3-(3,4,5-trifluorophenyl)-5,7-dihydro-4H-pyrazolo[3,4-c]pyridin-6-yl]-(2-methylpyrazolo[1,5-b]pyridazin-3-yl) methanone]
21 | 40.2 | C[C@H]1c2nn(C)c(-c3cc(F)c(F)c(F)c3)c2CCN1C(=O)c1n[nH]c2ccncc12 [Example 435, [(7S)-2,7-Dimethyl-3-(3,4,5-trifluorophenyl)-5,7-dihydro-4H-pyrazolo[3,4-c]pyridin-6-yl]-(1H-pyrazolo[4,3-c]pyridin-3-yl)methanone]
22 | 34.1 | Cc1nn2ccnc(C)c2c1C(=O)N1CCc2c(nn(C)c2-c2cc(F)c(F)c(F)c2)[C@@H]1C [Example 446, (2,4-Dimethylpyrazolo[1,5-a]pyrazin-3-yl)-[(7S)-2,7-dimethyl-3-(3,4,5-trifluorophenyl)-5,7-dihydro-4H-pyrazolo[3,4-c]pyridin-6-yl] methanone]
23 | 28.6 | C[C@H]1c2nn(C)c(-c3cc(F)c(F)c(F)c3)c2CCN1C(=O)c1nn(C)c2ncccc12 [Example 427, [(7S)-2,7-Dimethyl-3-(3,4,5-trifluorophenyl)-5,7-dihydro-4H-pyrazolo[3,4-c]pyridin-6-yl]-(1-methylpyrazolo[3,4-b]pyridin-3-yl)methanone]
24 | 24.1 | C[C@H]1c2nn(C)c(-c3cc(F)c(F)c(F)c3)c2CCN1C(=O)c1nnn2ccccc12 [Example 441, [(7S)-2,7-Dimethyl-3-(3,4,5-trifluorophenyl)-5,7-dihydro-4H-pyrazolo[3,4-c]pyridin-6-yl]-(triazolo[1,5-a]pyridin-3-yl)methanone]
25 | 23 | C[C@H]1c2nn(C)c(-c3cc(F)c(F)c(F)c3)c2CCN1C(=O)c1n[nH]c2ncc(F)cc12 [Example 428, [(7S)-2,7-Dimethyl-3-(3,4,5-trifluorophenyl)-5,7-dihydro-4H-pyrazolo[3,4-c]pyridin-6-yl]-(5-fluoro-1H-pyrazolo[3,4-b]pyridin-3-yl)methanone.TFA salt]
26 | 14.5 | C[C@H]1c2nn(C)c(-c3cc(F)c(F)c(F)c3)c2CCN1C(=O)c1n[nH]c2ncccc12 [Example 426, [(7S)-2,7-Dimethyl-3-(3,4,5-trifluorophenyl)-5,7-dihydro-4H-pyrazolo[3,4-c]pyridin-6-yl]-(1H-pyrazolo[3,4-b]pyridin-3-yl)methanone]
27 | 12.4 | Cc1cnn2ncc(C(=O)N3CCc4c(nn(C)c4-c4cc(F)c(F)c(F)c4)[C@@H]3C)c2c1 [Example 443, [(7S)-2,7-Dimethyl-3-(3,4,5-trifluorophenyl)-5,7-dihydro-4H-pyrazolo[3,4-c]pyridin-6-yl]-(5-methylpyrazolo[1,5-b]pyridazin-3-yl) methanone]
